Data on 1 molecule can be found in publication PMC10636063, “Progesterone activation of β1-containing BK channels involves two binding sites” (Nature Communications, 2023).

For assay [1], the target named is T1, β1Y32V,W163I (double mutant) (Rattus norvegicus, UniProt P97678, W163I/Y32V).
T1 construct: FLAG (DYKDDDDK); made in house; host or cells: CHO cells, transient transfection, anti-flag immunoprecipitation
Nature of the assay: Thermal unfolding (MST) of β1 double mutant. The format is binding. From the text: (§1) BK channel-forming slo1 cDNA (cbv1 isoform; AY330293) was cloned from rat cerebral artery SM cells, and inserted into pcDNA3.1 vector as described. BK β1 cDNA (KCNMB1 product; NP_011452; FJ154955) were isolated from rat cerebral artery SM cells and cloned as described. β4 cDNA (KCNMB4; NP_055320; AY028605) were generously provided by Dr. Ligia Toro. CHO cells were transiently transfected with cbv1 ± β1-, or β4-carrying pcDNA3.1 using X-tremeGENE HP (Sigma-Aldrich). Mutations to β1/4 cDNAs were conducted by Genscript, with sequences being confirmed to be >99% identical to KCNMB1 product; NP_011452 or β4 KCNMB4; NP_055320; respectively. β1/4 and mutant constructs were flag-tagged (DYKDDDDK-tag) by Genscript services for subsequent immunoprecipitation and use in microscale thermophoresis studies.
(§2) Wt β1, wt β4 and mutant constructs were purified by immunoprecipitation using Dynabeads Protein G Kit (10007D by Invitrogen) and following the manufacturer’s instructions. […] The unfolding profile of a protein is a plot of its fluorescence signal against temperature. […] During the heating process, fluorescence is recorded at 330 and 350 nm. The resulting fluorescence ratio change is then analyzed for onset and inflection points. The temperature of onset and inflection is determined using built-in analysis function in Nanotemper PR.therm-control software. […]

Assay [2] has as its target T2, β1W87F (Rattus norvegicus, UniProt P97678, W87F).
T2 construct: FLAG (DYKDDDDK); made in house; host or cells: CHO cells, transient transfection, anti-flag immunoprecipitation
Put plainly: Thermal unfolding (MST) of β1W87F. The format is binding. The following applies: 0.004 and 4.1 µM.
Excerpt: as §1, §2

Assay [3] concerns de-endothelialized MCA segments of KCNMB1-/- mice permeabilized with β1 constructs. Put plainly: Cerebral artery diameter in vitro, KCNMB1-/- MCA permeabilized with β1 constructs. The settings on record: 10 µM; W87F, Y32V or W163I constructs. Also on record: species or system mouse. An excerpt:
Eight-12 week-old C57BL/6J and KCNMB1^−/− on C57BL/6 background mice of both sexes were deeply anesthetized with isoflurane via inhalation in a tightly sealed jar. […] For de-endothelialized records, the endothelium was removed by passing an air bubble into the vessel lumen for 90 s[30]. This method has been consistently used by our group and validated using endothelium-dependent versus endothelium-independent vasodilators[16],[26]. Arteries were cannulated as previously described by our group[26],[40]. […] PSS was continuously bubbled with an O2/CO2/N2 (21/5/74%) gas mixture and maintained at 35–37 °C. The artery external wall diameter was measured using the automatic edge-detection function of lonWizard software (lonOptix) via Sanyo VCB-3512T camera (Sanyo Electric Co.). Arteries were first incubated at an intravascular pressure of 10 mm Hg for 10 min. Then intravascular pressure was increased to 60 mmHg and held steady throughout the experiment to induce myogenic tone development and maintenance[19],[30],[51]. […] To determine arterial viability, arterial contractility was probed with a high KCl solution at the end of each experiment. […] Like PSS, the high-KCl solution was continuously bubbled with O2/CO2/N2 (21/5/74%) gas mixture and maintained at 35–37 °C. […]

SMILES strings stand for the structures.

T1 sequence (P97678 whole entry Y32V/W163I): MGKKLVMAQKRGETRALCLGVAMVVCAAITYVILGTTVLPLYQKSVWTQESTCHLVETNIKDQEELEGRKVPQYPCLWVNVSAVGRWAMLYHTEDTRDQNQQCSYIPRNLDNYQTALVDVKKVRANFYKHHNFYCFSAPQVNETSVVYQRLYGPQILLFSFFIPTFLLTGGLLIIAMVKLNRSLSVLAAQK
T2 sequence (P97678 whole entry W87F): as the sequence (P97678 whole entry Y32V/W163I) above, with V32Y, W87F, I163W counted along it

Consider `CC(=O)[C@H]1CC[C@H]2[C@@H]3CCC4=CC(=O)CC[C@]4(C)[C@H]3CC[C@]12C` [PROG, Progesterone], for which the “effect on thermal unfolding / binding” value in assay [1] (4.1 μM) is listed as “not destabilized”; in assay [1] (low concentrations (subμM)), “still destabilized”; in assay [2], “loss of PROG binding”. Further, the “vasoactive response of MCA segments” value in assay [3] is reported as “failed to dilate MCA segments”.
